Patent publication US10053417B2, “Neprilysin inhibitors” (THERAVANCE BIOPHARMA R&D IP, LLC, priority 2013, dated 2018)

Biological target: T1, human NEP (Homo sapiens, UniProt P08473)
T1 construct: purchased R&D Systems, Minneapolis, Minn; 1182-ZN
Assay: In vitro enzyme inhibition assay, inhibitor potency at human NEP (Assay 1)
Assay type: biochemical
Details: recombinant human NEP; fluorogenic peptide substrate 10 μM; 37° C.; values given as ranges
Protocol: The inhibitory activities of compounds at human and rat neprilysin (EC 3.4.24.11; NEP) and human angiotensin converting enzyme (ACE) were determined using in vitro assays as described below.
Recombinant human NEP and recombinant human ACE were obtained commercially (R&D Systems, Minneapolis, Minn., catalog numbers 1182-ZN and 929-ZN, respectively). The fluorogenic peptide substrate Mca-D-Arg-Arg-Leu-Dap-(Dnp)-OH (Medeiros et al. (1997) Braz. J. Med. Biol. Res. 30:1157-62; Anaspec, San Jose, Calif.) and Abz-Phe-Arg-Lys(Dnp)-Pro-OH (Araujo et al. (2000) Biochemistry 39:8519-8525; Bachem, Torrance, Calif.) were used in the NEP and ACE assays respectively.
The assays were performed in 384-well white opaque plates at 37° C. using the fluorogenic peptide substrates at a concentration of 10 μM in Assay Buffer (NEP: 50 mM HEPES, pH 7.5, 100 mM NaCl, 0.01% polyethylene glycol sorbitan monolaurate (Tween-20), 10 μM ZnSO4; ACE: 50 mM HEPES, pH 7.5, 100 mM NaCl, 0.01% Tween-20, 1 μM ZnSO4).
Test compounds were assayed over the range of concentrations from […] to 20 μM. Test compounds were added to the enzymes and incubated for 30 minute at 37° C. prior to initiating the reaction by the addition of substrate. Reactions were terminated after 20 minutes of incubation at 37° C. by the addition of glacial acetic acid to a final concentration of 3.6% (v/v).
Plates were read on a fluorometer with excitation and emission wavelengths set to 320 nm and 405 nm, respectively. Inhibition constants were obtained by nonlinear regression of the data using the equation (GraphPad Software, Inc., San Diego, Calif.): ν=ν0/[1+(I/K′)] where ν is the reaction rate, ν0 is the uninhibited reaction rate, I is the inhibitor concentration and K′ is the apparent inhibition constant.
Compounds of the invention were tested in this assay and found to have pKi values at human NEP as follows.

T1 sequence (P08473 52-750 limits assumed): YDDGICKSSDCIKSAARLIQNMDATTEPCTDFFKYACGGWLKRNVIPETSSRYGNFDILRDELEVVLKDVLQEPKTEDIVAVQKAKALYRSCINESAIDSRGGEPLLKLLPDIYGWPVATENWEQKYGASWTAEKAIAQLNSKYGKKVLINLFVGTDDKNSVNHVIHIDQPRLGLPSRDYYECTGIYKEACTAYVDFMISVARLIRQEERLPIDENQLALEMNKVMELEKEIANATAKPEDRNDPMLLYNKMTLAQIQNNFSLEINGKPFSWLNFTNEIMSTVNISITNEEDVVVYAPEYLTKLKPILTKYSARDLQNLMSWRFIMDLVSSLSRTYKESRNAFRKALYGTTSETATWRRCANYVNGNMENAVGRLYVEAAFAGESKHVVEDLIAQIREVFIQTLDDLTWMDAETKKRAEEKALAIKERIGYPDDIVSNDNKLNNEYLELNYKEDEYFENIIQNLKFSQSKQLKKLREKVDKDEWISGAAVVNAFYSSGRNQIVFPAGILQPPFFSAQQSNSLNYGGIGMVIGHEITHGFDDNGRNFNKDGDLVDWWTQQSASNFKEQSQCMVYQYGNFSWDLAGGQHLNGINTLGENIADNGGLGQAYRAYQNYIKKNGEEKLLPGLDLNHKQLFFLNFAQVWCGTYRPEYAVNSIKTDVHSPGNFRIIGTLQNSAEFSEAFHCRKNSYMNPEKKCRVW

O=C(N[C@H](Cc1ccc(-c2cccc(Cl)c2)cc1)C[C@@H](O)C(=O)O)C(=O)N1CCCC(CCO)C1 (stereo partly drawn) [Example 4-32, (2R,4R)-5-(3′-Chlorobiphenyl-4-yl)-2-hydroxy-4-{2-[3-(2-hydroxyethyl)-piperidin-1-yl]-2-oxo-acetylamino}pentanoic acid]
Ki: 10 to 31.6 nM

O=C(COc1ccc(O)cc1)N[C@H](Cc1ccc(-c2cccc(Cl)c2)cc1)C[C@@H](O)C(=O)O [Example 10-8, (2R,4R)-5-(3′-Chlorobiphenyl-4-yl)-2-hydroxy-4-[2-(4-hydroxyphenoxy)-acetylamino]-pentanoic acid]
Ki: 10 to 31.6 nM

O=C(NNC(=O)c1ccco1)C(=O)N[C@H](Cc1ccc(-c2cccc(Cl)c2)cc1)C[C@@H](O)C(=O)O [Example 8-5, (2R,4R)-5-(3′-Chlorobiphenyl-4-yl)-4-{2-[N′-(furan-2-carbonyl)-hydrazino]-2-oxo-acetylamino}-2-hydroxypentanoic acid]
Ki: 1 to 10 nM

O=C(COCc1ccccc1)N[C@H](Cc1ccc(-c2cccc(Cl)c2)cc1)C[C@@H](O)C(=O)O [Example 10-6, (2R,4R)-4-(2-Benzyloxy-acetylamino)-5-(3′-chlorobiphenyl-4-yl)-2-hydroxy-pentanoic acid]
Ki: 10 to 31.6 nM

O=C(N[C@H](Cc1ccc(-c2cccc(Cl)c2)cc1)C[C@@H](O)C(=O)O)C(=O)N1CCC[C@H]1CO [Example 3, (2R,4R)-5-(3′-Chlorobiphenyl-4-yl)-2-hydroxy-4-[2-((S)-2-hydroxymethylpyrrolidin-1-yl)-2-oxo-acetylamino]pentanoic Acid]
Ki: ≤ 1 nM

O=C(COc1ccccc1)N[C@H](Cc1ccc(-c2cccc(Cl)c2)cc1)C[C@@H](O)C(=O)O [Example 10-7, (2R,4R)-5-(3′-Chlorobiphenyl-4-yl)-2-hydroxy-4-(2-phenoxyacetylamino)-pentanoic acid]
Ki: 10 to 31.6 nM

CCOC(=O)N1CCN(C(=O)C(=O)N[C@H](Cc2ccc(-c3cccc(Cl)c3)cc2)C[C@@H](O)C(=O)O)CC1 [Example 4-35, 4-[(1R,3R)-3-Carboxy-1-(3′-chlorobiphenyl-4-ylmethyl)-3-hydroxy-propylaminooxalyl]-piperazine-1-carboxylic acid ethyl ester]
Ki: 10 to 31.6 nM

O=C(N[C@H](Cc1ccc(-c2cccc(Cl)c2)cc1)C[C@@H](O)C(=O)O)C(=O)N1CCC[C@@H]1CO [Example 4-16, (2R,4R)-5-(3′-Chlorobiphenyl-4-yl)-2-hydroxy-4-[2-((R)-2-hydroxymethyl-pyrrolidin-1-yl)-2-oxo-acetylamino]pentanoic acid]
Ki: 1 to 10 nM

C[C@@](CO)(C[C@@H](Cc1ccc(-c2cccc(Cl)c2)cc1)NC=O)C(=O)O [Example 13, (2S,4R)-5-(3′-Chlorobiphenyl-4-yl)-4-formylamino-2-hydroxymethyl-2-methyl-pentanoic Acid]
Ki: 1 to 10 nM

CONC(=O)C(=O)N[C@H](Cc1ccc(-c2cccc(Cl)c2)cc1)C[C@@H](O)C(=O)O [Example 4-6, (2R,4R)-5-(3′-Chlorobiphenyl-4-yl)-2-hydroxy-4-(methoxyaminooxalylamino)-pentanoic acid]
Ki: 1 to 10 nM

O=C(NNC(=O)C(=O)N[C@H](Cc1ccc(-c2cccc(Cl)c2)cc1)C[C@@H](O)C(=O)O)OCc1ccccc1 [Example 8-1, (2R,4R)-4-[2-(N′-Benzyloxycarbonyl-hydrazino)-2-oxo-acetylamino]-5-(3′-chloro-biphenyl-4-yl)-2-hydroxypentanoic acid]
Ki: 10 to 31.6 nM

COC(=O)N1CCN(C(=O)C(=O)N[C@H](Cc2ccc(-c3cccc(Cl)c3)cc2)C[C@@H](O)C(=O)O)CC1 [Example 4-41, 4-[(1R,3R)-3-Carboxy-1-(3′-chlorobiphenyl-4-ylmethyl)-3-hydroxy-propylaminooxalyl]-piperazine-1-carboxylic acid methyl ester]
Ki: 1 to 10 nM

O=C(N[C@H](Cc1ccc(-c2cccc(Cl)c2)cc1)C[C@@H](O)C(=O)O)C(=O)N1CCN(C(=O)c2ccco2)CC1 [Example 4-36, (2R,4R)-5-(3′-Chlorobiphenyl-4-yl)-4-{2-[4-(furan-2-carbonyl)-piperazin-1-yl]-2-oxo-acetylamino}-2-hydroxypentanoic acid]
Ki: 1 to 10 nM

C[C@H]1COC[C@H](C)N1C(=O)C(=O)N[C@H](Cc1ccc(-c2cccc(Cl)c2)cc1)C[C@@H](O)C(=O)O [Example 4-47, (2R,4R)-5-(3′-Chlorobiphenyl-4-yl)-4-[2-((3S,5S)-3,5-dimethylmorpholin-4-yl)-2-oxo-acetylamino]-2-hydroxypentanoic acid]
Ki: 1 to 10 nM

CN1CCN(C(=O)C(=O)N[C@H](Cc2ccc(-c3cccc(Cl)c3)cc2)C[C@@H](O)C(=O)O)CC1 [Example 4-34, (2R,4R)-5-(3′-Chlorobiphenyl-4-yl)-2-hydroxy-4-[2-(4-methyl-piperazin-1-yl)-2-oxo-acetylamino]pentanoic acid]
Ki: 10 to 31.6 nM

O=C(N[C@H](Cc1ccc(-c2cccc(Cl)c2)cc1)C[C@@H](O)C(=O)O)C(=O)N1CCC(CO)CC1 [Example 4-20, (2R,4R)-5-(3′-Chlorobiphenyl-4-yl)-2-hydroxy-4-[2-(4-hydroxymethyl-piperidin-1-yl)-2-oxo-acetylamino]pentanoic acid]
Ki: ≤ 1 nM

O=C(Cc1ccccc1)C(=O)N[C@H](Cc1ccc(-c2cccc(Cl)c2)cc1)C[C@@H](O)C(=O)O [Example 2-2, (2R,4R)-5-(3′-Chloro-biphenyl-4-yl)-2-hydroxy-4-(2-oxo-3-phenyl-propionylamino)-pentanoic acid]
Ki: 1 to 10 nM

CC(C)OCC(=O)N[C@H](Cc1ccc(-c2cccc(Cl)c2)cc1)C[C@@H](O)C(=O)O [Example 10-4, (2R,4R)-5-(3′-Chlorobiphenyl-4-yl)-2-hydroxy-4-(2-isopropoxyacetylamino)-pentanoic acid]
Ki: 10 to 31.6 nM

O=C(N[C@H](Cc1ccc(-c2cccc(Cl)c2)cc1)C[C@@H](O)C(=O)O)C(=O)N1CC(O)CO1 (stereo partly drawn) [Example 4-49, (2R,4R)-5-(3′-Chlorobiphenyl-4-yl)-2-hydroxy-4-[2-(4-hydroxyisoxazolidin-2-yl)-2-oxo-acetylamino]pentanoic acid]
Ki: 1 to 10 nM

O=C(N[C@H](Cc1ccc(-c2cccc(Cl)c2)cc1)C[C@@H](O)C(=O)O)C(=O)N1CCCC[C@@H]1CO [Example 4-25, (2R,4R)-5-(3′-Chlorobiphenyl-4-yl)-2-hydroxy-4-[2-((R)-2-hydroxymethyl-piperidin-1-yl)-2-oxo-acetylamino]pentanoic acid]
Ki: ≤ 1 nM

N#Cc1ccccc1N1CCN(C(=O)C(=O)N[C@H](Cc2ccc(-c3cccc(Cl)c3)cc2)C[C@@H](O)C(=O)O)CC1 [Example 4-37, (2R,4R)-5-(3′-Chlorobiphenyl-4-yl)-4-{2-[4-(2-cyano-phenyl)-piperazin-1-yl]-2-oxo-acetylamino}-2-hydroxypentanoic acid]
Ki: 10 to 31.6 nM

Cc1ccc(NNC(=O)C(=O)N[C@H](Cc2ccc(-c3cccc(Cl)c3)cc2)C[C@@H](O)C(=O)O)cc1 [Example 6-11, (2R,4R)-5-(3′-Chlorobiphenyl-4-yl)-2-hydroxy-4-[(N′-p-tolyl-hydrazinooxalyl)-amino]-pentanoic acid]
Ki: 1 to 10 nM

O=C(NNc1ccc(Br)cc1)C(=O)N[C@H](Cc1ccc(-c2cccc(Cl)c2)cc1)C[C@@H](O)C(=O)O [Example 6-14, (2R,4R)-4-{[N′-(4-Bromophenyl)-hydrazinooxalyl]-amino}-5-(3′-chlorobiphenyl-4-yl)-2-hydroxypentanoic acid]
Ki: 1 to 10 nM

COc1cccc(OCC(=O)N[C@H](Cc2ccc(-c3cccc(Cl)c3)cc2)C[C@@H](O)C(=O)O)c1 [Example 10-9, (2R,4R)-5-(3′-Chlorobiphenyl-4-yl)-2-hydroxy-4-[2-(3-methoxyphenoxy)-acetylamino]-pentanoic acid]
Ki: 10 to 31.6 nM

CN(C)C(=O)C(=O)N[C@H](Cc1ccc(-c2cccc(Cl)c2)cc1)C[C@@H](O)C(=O)O [Example 4-11, (2R,4R)-5-(3′-Chlorobiphenyl-4-yl)-4-(dimethylaminooxalylamino)-2-hydroxy-pentanoic acid]
Ki: 10 to 31.6 nM

CC1(O)CCN(C(=O)C(=O)N[C@H](Cc2ccc(-c3cccc(Cl)c3)cc2)C[C@@H](O)C(=O)O)CC1 [Example 4-22, (2R,4R)-5-(3′-Chlorobiphenyl-4-yl)-2-hydroxy-4-[2-(4-hydroxy-4-methyl-piperidin-1-yl)-2-oxo-acetylamino]pentanoic acid]
Ki: 1 to 10 nM

O=C(NNc1ccccc1Cl)C(=O)N[C@H](Cc1ccc(-c2cccc(Cl)c2)cc1)C[C@@H](O)C(=O)O [Example 6-7, (2R,4R)-5-(3′-Chlorobiphenyl-4-yl)-4-{[N′-(2-chloro-phenyl)-hydrazinooxalyl]-amino}-2-hydroxypentanoic acid]
Ki: 1 to 10 nM
